Source: the supplement of paper PMC10307832

Assays:
Test in all cases: relative viability (nuclei count vs DMSO), 5 days (fraction); higher = more cells survive
AGI-6780 + Phenformin = compound: O=C(Nc1cccc(C(F)(F)F)c1)Nc1cc(S(=O)(=O)NC2CC2)ccc1-c1ccsc1 [AGI-6780] + N=C(N)NC(=N)NCCc1ccccc1 [Phenformin] (partner 250 µM)
In short: (§1)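 Dosing by pin tool came one day after lung cancer cell lines were seeded in 1536-well plates, using either one drug or a fixed anchor-drug dose plus five library-drug doses (not always all listed) in √10 steps. After 5 days, nuclei were counted on 4× images. Relative viability is treated-well nuclei count divided by vehicle-well nuclei count, and values are medians of duplicate plates.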

AGI-6780 + Lapatinib = compound: O=C(Nc1cccc(C(F)(F)F)c1)Nc1cc(S(=O)(=O)NC2CC2)ccc1-c1ccsc1 [AGI-6780] + CS(=O)(=O)CCNCc1ccc(-c2ccc3ncnc(Nc4ccc(OCc5cccc(F)c5)c(Cl)c4)c3c2)o1 [Lapatinib] (partner 2 µM)
In short: as §1

AGI-6780 + Olaparib = compound: O=C(Nc1cccc(C(F)(F)F)c1)Nc1cc(S(=O)(=O)NC2CC2)ccc1-c1ccsc1 [AGI-6780] + O=C(c1cc(Cc2n[nH]c(=O)c3ccccc23)ccc1F)N1CCN(C(=O)C2CC2)CC1 [Olaparib] (partner 8 µM)
In short: as §1

AGI-6780 + Trametinib = compound: O=C(Nc1cccc(C(F)(F)F)c1)Nc1cc(S(=O)(=O)NC2CC2)ccc1-c1ccsc1 [AGI-6780] + CC(=O)Nc1cccc(-n2c(=O)n(C3CC3)c(=O)c3c(Nc4ccc(I)cc4F)n(C)c(=O)c(C)c32)c1 [Trametinib] (partner 0.02 µM)
In short: as §1

| Cell Line | relative viability (AGI-6780 + Phenformin; first compound 0.08 µM) | relative viability (AGI-6780 + Phenformin; first compound 0.253 µM) | relative viability (AGI-6780 + Phenformin; first compound 0.8 µM) | relative viability (AGI-6780 + Phenformin; first compound 2.53 µM) | relative viability (AGI-6780 + Phenformin; first compound 8 µM) | relative viability (AGI-6780 + Lapatinib; first compound 0.08 µM) | relative viability (AGI-6780 + Lapatinib; first compound 0.253 µM) | relative viability (AGI-6780 + Lapatinib; first compound 0.8 µM) | relative viability (AGI-6780 + Lapatinib; first compound 2.53 µM) | relative viability (AGI-6780 + Lapatinib; first compound 8 µM) | relative viability (AGI-6780 + Olaparib; first compound 0.08 µM) | relative viability (AGI-6780 + Olaparib; first compound 0.253 µM) | relative viability (AGI-6780 + Olaparib; first compound 0.8 µM) | relative viability (AGI-6780 + Olaparib; first compound 2.53 µM) | relative viability (AGI-6780 + Olaparib; first compound 8 µM) | relative viability (AGI-6780 + Trametinib; first compound 0.08 µM) | relative viability (AGI-6780 + Trametinib; first compound 0.253 µM) | relative viability (AGI-6780 + Trametinib; first compound 0.8 µM) | relative viability (AGI-6780 + Trametinib; first compound 2.53 µM) | relative viability (AGI-6780 + Trametinib; first compound 8 µM) |
| --- | --- | --- | --- | --- | --- | --- | --- | --- | --- | --- | --- | --- | --- | --- | --- | --- | --- | --- | --- | --- |
| NCI-H1650 | 0.387 | 0.407 | 0.498 | 0.4 | 0.382 | 0.739 | 0.777 | 1.16 | 0.789 | 0.874 | 0.884 | 0.774 | 0.934 | 0.689 | 0.791 | 0.559 | 0.555 | 0.653 | 0.623 | 0.757 |
| NCI-H2228 | 0.341 | 0.278 | 0.31 | 0.347 | 0.393 | 1.2 | 1.05 | 0.825 | 0.771 | 1.27 | 0.686 | 0.769 | 0.591 | 0.41 | 0.736 | 0.447 | 0.508 | 0.505 | 0.307 | 0.607 |
| NCI-H520 | 0.733 | 0.699 | 0.743 | 0.431 | 0.622 | 0.913 | 0.983 | 0.981 | 0.775 | 0.968 | 0.33 | 0.376 | 0.31 | 0.322 | 0.331 | 0.652 | 0.628 | 0.58 | 0.593 | 0.666 |
| NCI-H1395 | 0.469 | 0.46 | 0.45 | 0.397 | 0.449 | 0.941 | 1.06 | 1.01 | – | 1.04 | 0.474 | 0.475 | 0.474 | 0.424 | 0.439 | 0.984 | 1.01 | 1.04 | 0.975 | 1.06 |
| NCI-H2170 | 0.413 | 0.459 | 0.631 | 0.422 | 0.403 | 0.291 | 0.281 | 0.272 | – | 0.257 | 0.589 | 0.587 | 0.67 | – | 0.59 | 1.03 | 0.881 | 0.997 | – | 0.863 |
| NCI-H2023 | 0.395 | 0.39 | 0.413 | 0.403 | 0.389 | 0.902 | 0.992 | 1 | 0.556 | 0.906 | 0.5 | 0.444 | 0.437 | 0.374 | 0.492 | 0.691 | 0.527 | 0.497 | 0.5 | 0.526 |
